The subject of data set [1] is Mycobacterium tuberculosis. Description: Antimycobacterial activity against GFP-expressing Mycobacterium tuberculosis H37Rv infected in PMA-treated THP-1 cells assessed as bacterial viability pre-infected for 3 hrs prior to gentamycin addition for 1 hr followed by washout and compound addition measured after 4 days by fluorescence microscopic analysis. Type of data set: functional, organism-based. The note with it: dose 1-30 µM, time 4.0 day.

The subject of the next data set is Klebsiella pneumoniae. Put plainly: Antibacterial activity against Klebsiella pneumoniae ATCC10031 incubated for 18 hrs by serial broth microdilution method. Type of data set: functional.
The subject of data set [2] is Mycobacterium tuberculosis. Put plainly: Antimycobacterial activity against GFP-expressing Mycobacterium tuberculosis H37Rv infected in PMA-treated THP-1 cells assessed as increase in number of surviving macrophages at 1 to 30 uM pre-infected for 3 hrs prior to gentamycin addition for 1 hr followed by washout and compound addition measured after 4 days by fluorescence microscopic analysis. Type of data set: functional, organism-based. The note with it: dose 1-30 µM, time 4.0 day.

In data set [3] the test system is Escherichia coli. Description: Antibacterial activity against Escherichia coli ATCC 25922 harboring deltaTolC mutant incubated for 18 hrs by serial broth microdilution method. Type of data set: functional. For orientation: Dilution methods test growth across graded concentrations, often in twofold steps.
Data set [4] concerns Acinetobacter baumannii. Put plainly: Antibacterial activity against Acinetobacter baumannii ATCC17978 incubated for 18 hrs by serial broth microdilution method. Type of data set: functional.
The nature of data set [5]: Protein binding in mouse plasma assessed as free fraction at 10 uM incubated for 4 hrs by rapid equilibrium dialysis based LC-MS/MS method. Type of data set: ADME, cell-free.
Data set [6] deals with THP-1. Description: Cytotoxicity against human THP-1 cells assessed as reduction in viability at 40 uM pretreated with PMA for 48 hrs followed by washout and compound addition for 5 days by resazurin sodium salt method. Type of data set: toxicity, cell-based. As to conditions: thp-1, 120 h, time 5 day. (Alamar Blue is a resazurin reagent that responds to reducing activity.)

A short description of data set [7]: Kinetic solubility of compound in PBS at 100 uM incubated for 20 hrs in shaker by LC-MS/MS analysis. Type of data set: physicochemical. The note with it: read-out: Kinetic_solubility.
Data set [8] concerns Escherichia coli. Put plainly: Antibacterial activity against Escherichia coli ATCC 25922 incubated for 18 hrs by serial broth microdilution method. Type of data set: functional.
The test system of another data set is Segatella copri. Description: Antibacterial activity against Prevotella copri DSM 18205 measured at 15 mins interval for 24 hrs by broth microdilution method. Type of data set: functional.
The subject of another data set is Enterobacter cloacae. Description: Antibacterial activity against Enterobacter cloacae ATCC13047 incubated for 18 hrs by serial broth microdilution method. Type of data set: functional.
Data set [9] concerns Mycobacterium tuberculosis. Put plainly: Antimycobacterial activity against Mycobacterium tuberculosis H37Rv ATCC 25618 assessed as reduction in viability incubated for 6 days by resazurin reduction microplate assay. Type of data set: functional. The note with it: H37Rv ATCC 25618, 144 h, time 6 day.
Data set [10] is described as follows: Acute toxicity in zebrafish embryo assessed as effect on embryo survival upto 5 mM measured for 4 days. Also noted: species or system Danio rerio. As to conditions: in vivo, 96 h, 5000 µM, time 4 day.
The test system of a further data set is Anaerostipes hadrus. Description: Antibacterial activity against Anaerostipes hadrus DSM 3319 measured at 15 mins interval for 24 hrs by broth microdilution method. Type of data set: functional.
Data set [11] can be described thus: Protein binding in human plasma assessed as free fraction at 10 uM incubated for 4 hrs by rapid equilibrium dialysis based LC-MS/MS method. Type of data set: ADME, cell-free.
Data set [12] deals with Mycolicibacterium smegmatis. Put plainly: Antimycobacterial activity against Mycobacterium smegmatis MC2 incubated for 2 days by resazurin reduction microplate assay. The note with it: MC2, 48 h, time 2 day. Type of data set: functional.
For data set [13], the system named is Mycobacteroides abscessus. Put plainly: Antimycobacterial activity against Mycobacterium abscessus RIVM incubated for 1 day by resazurin reduction microplate assay. Type of data set: functional. The note with it: 24 h.
In a further data set the test system is Staphylococcus aureus. Description: Antibacterial activity against Staphylococcus aureus ATCC 29213 incubated for 18 hrs by serial broth microdilution method. Type of data set: functional.
Data set [14] deals with THP-1. Description: Cytotoxicity against replicating human THP-1 cells upto 40 uM. Type of data set: toxicity, cell-based. The note with it: thp-1, 40 µM.
The test system of data set [15] is Bacteroides thetaiotaomicron. Put plainly: Antibacterial activity against Bacteroides thetaiotaomicron DSM 2079 measured at 15 mins interval for 24 hrs by broth microdilution method. Type of data set: functional.
Data set [16] can be described thus: Acute toxicity in zebrafish embryo assessed as effect on embryo development upto 5 mM measured for 4 days. Also noted: species or system Danio rerio. As to conditions: in vivo, 96 h, 5000 µM, time 4 day.
For data set [17], the system named is Pseudomonas aeruginosa. Put plainly: Antibacterial activity against Pseudomonas aeruginosa ATCC 27853 incubated for 18 hrs by serial broth microdilution method. Type of data set: functional.
Data set [18] can be described thus: Acute toxicity in zebrafish embryo assessed as change in behavior upto 5 mM measured for 4 days. Further details: species or system Danio rerio. As to conditions: in vivo, 96 h, 5000 µM, time 4 day.
The subject of data set [19] is Pseudomonas aeruginosa. Put plainly: Antibacterial activity against Pseudomonas aeruginosa. Type of data set: functional.
Data set [20] relates to Mycobacterium tuberculosis. Description: Antimycobacterial activity against Mycobacterium tuberculosis H37Rv ATCC 25618 assessed as reduction in viability at 5 uM incubated for 6 days by resazurin reduction microplate assay. Type of data set: functional. The note with it: time 6 day.
Data set [21] deals with Acinetobacter baumannii. Description: Antibacterial activity against Acinetobacter baumannii. Type of data set: functional.
Data set [22] has as its system THP-1. Put plainly: Cytotoxicity against replicating human THP-1 cells. Type of data set: toxicity, cell-based.
For data set [23], the system named is Mycobacterium tuberculosis. Description: Antimycobacterial activity against GFP-expressing Mycobacterium tuberculosis H37Rv infected in PMA-treated THP-1 cells assessed as bacterial viability at 10 uM pre-infected for 3 hrs prior to gentamycin addition for 1 hr followed by washout and compound addition measured after 4 days by fluorescence microscopic analysis (reference value: 100%). Type of data set: functional. The note with it: time 4 day.

In data set [24] the test system is THP-1. Put plainly: Cytotoxicity against human THP-1 cells pretreated with PMA for 48 hrs followed by washout and compound addition for 5 days by resazurin sodium salt method. Type of data set: toxicity, cell-based. The note with it: thp-1, 120 h, time 5 day.
Data set [25] concerns Mycobacterium tuberculosis. Put plainly: Antimycobacterial activity against GFP-expressing Mycobacterium tuberculosis H37Rv infected in PMA-treated THP-1 cells assessed as number of viable macrophages at 10 uM pre-infected for 3 hrs prior to gentamycin addition for 1 hr followed by washout and compound addition measured after 4 days by fluorescence microscopic analysis. As to conditions: time 4.0 day. Type of data set: functional.

Data set [26] can be described thus: Inhibition of Mycobacterium tuberculosis DNA gyrase B.

The values below come from ChEMBL document CHEMBL5608207, “Development of narrow-spectrum topoisomerase-targeting antibacterials against mycobacteria” (Eur J Med Chem, 2024).

In brackets after ≈: the same amount, converted by molar mass. Activity calls are given as the source filed them. The calls are words filed in the database; no cut-off is given here.

`Cc1[nH]c(C(=O)Nc2nc3c(OC(C)CN(C)C)cc(C(=O)O)cc3s2)c(Cl)c1Cl` (stereo unspecified): the Activity entry in [1] was “Dose-Dependent Effect”; with THP-1 [6] it was 34%; in data set [10], “Non-Toxic”; in the data set with THP-1 [14] it was “Non-Toxic”; in data set [16] it was “Non-Toxic”; in data set [18] it was “Non-Toxic”. In addition, the MIC90 (commonly an inhibitory concentration at the 90% level, which refers to growth in some studies and to a panel of isolates in others) was 8 µM (≈ 3.77 µg/mL) in the data set on Klebsiella pneumoniae; 2 µM (≈ 0.943 µg/mL) against Escherichia coli [3]; over 135 µM in the data set with Acinetobacter baumannii [4]; over 135 µM against Escherichia coli [8]; over 135 µM in the data set on Enterobacter cloacae; 2.5 µM (≈ 1.18 µg/mL) in [9]. Moreover, the MIC90 in data set [12] is 0.63 µM (≈ 0.297 µg/mL); in data set [13], 0.63 µM (≈ 0.297 µg/mL); against Staphylococcus aureus, over 135 µM; with Pseudomonas aeruginosa [17] it was over 135 µM. The outcome in data set [2] was inactive. Moreover, the fraction unbound (usually the share of the substance not bound to proteins or other matrix) at 4 h, 10 µM in data set [5] is 0.047; in [11], 0.029. In data set [7], the solubility kinetic at 20 h, 100 µM is 55 µM (≈ 25.9 µg/mL). Moreover, the MIC (in the data set on Segatella copri; against Anaerostipes hadrus; in [15]) was over 20 µM in each case.
Turning to `Cc1[nH]c(C(=O)Nc2nc3ccc(C(=O)O)cc3s2)c(Cl)c1Cl`, the MIC (commonly the lowest concentration that inhibits growth of the organism) stood at 8 µg/mL (≈ 21.6 µM) in the data set with Pseudomonas aeruginosa [19] and 4 µg/mL (≈ 10.8 µM) against Acinetobacter baumannii [21]. The Activity in [20] is 57%; with THP-1 [22], “Non-Toxic”; in [23], 14%; in the data set with THP-1 [24], “Non-Toxic”. In addition, the result in [25] was inactive. Also, in [26], the IC50 – broadly, the concentration needed to halve the response being measured – was found to be 24.5 nM.
